Results as given in PubChem BioAssay AID179 (DTP/NCI, 2004).
Activity calls are given as the source filed them.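 The calls were made as follows: active = compounds giving half or more protection of infected cells from virus-caused growth loss, again on retest; inactive = the rest.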

Test system: CEM cells HIV-1 protection, formazan growth assay
Assay: NCI AIDS Antiviral Assay
Details: for IC50: measured here: growth of uninfected CEM cells
Procedure, shortened: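 Steps: treat uninfected and HIV-1-infected human CEM cells at five drug levels; quantify growth by soluble formazan; retest any compound reaching 50% protection; classify actives from the retest.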

SMILES	EC50 [µM]	IC50 [µM]	outcome
Cc1ccccc1NC(=O)C(=O)C(c1cnc2ccc([N+](=O)[O-])cc2n1)[N+](=O)[O-] (stereo not given)	> 240	126	
CN(C)CC1CCC/C(=C\c2ccc(Cl)cc2)C1=O (stereo not given)	> 20	0.977	
O=Nc1ccc(N(CCO)CCO)cc1	> 200	2.95	
N[C@@H](CSSC[C@H](N)C(=O)OCc1ccccc1)C(=O)OCc1ccccc1	> 200	83.2	
O=C(C=Nc1ccccc1C(=O)O)c1ccco1	> 8.32	> 8.32	
C=C1c2c(Cl)ccc(O)c2C(O)=C2C(=O)C3(O)C(O)=C(C(N)=O)C(=O)C(N(C)C)C3C(O)C12 (stereo not given)	> 200	11	
O=c1oc2ccccc2c(O)c1C(c1ccc2c(c1)OCO2)N1CCCC1 (stereo not given)	> 200	93.3	
O=C1OCCOC(=O)c2cccc(n2)C(=O)OCCOC(=O)c2cccc1n2	22.9	25.7	
COCCCNC(=O)C1C(=O)N(CCCOC)C(=O)/C1=N\N (stereo not given)	> 214	> 214	
N#C/C(=C\c1ccccc1)c1ccccc1F	> 200	37.2	
COc1cc(/C=C2\CN(C)CC3=C2NC(=S)NC3c2cc(OC)c(OC)c(OC)c2)cc(OC)c1OC (stereo not given)	> 200	38.9	
O=C(c1ccccc1)[C@H]1Nc2ccc(Cl)cc2[C@H]2c3ccccc3O[C@H]21	> 27.5	> 27.5	
COC1C(OC(=O)c2ccc(C)[nH]2)C(O)C(Oc2ccc3c(O)c(NC(=O)c4ccc(O)c(CC=C(C)C)c4)c(=O)oc3c2Cl)OC1(C)C (stereo not given)	> 200	15.8	
C=COC(=O)N1C2CCCC(Cl)(C(C)=O)C1CC2 (stereo not given)	> 200	55	
N#CC12Cc3ccc4c(c3-c3cccc(c31)CCN2C(=O)c1ccccc1)OCO4 (stereo not given)			inactive
NC1CSSCC(C(=O)O)NC1=O (stereo not given)	> 61.7	> 61.7	
CN(C)CCCCC1c2ccccc2Sc2ccccc21	> 200	8.71	
CCC(=O)COc1ccc(NC(NC(=O)C(C(F)(F)F)C(F)(F)F)(C(F)(F)F)C(F)(F)F)cc1			inactive
CC(C)N1CN(c2ccccc2)C2(CCN(CCCC(=O)c3ccc(F)cc3)CC2)C1=O	> 200	5.75	
[O]=[W](=[O])([OH])[OH]			inactive

SMILES	EC50 [µM]	IC50 [µM]	outcome
COc1cc2c(c(OC)c1OC)CCc1cnoc1-2	> 257	> 100	
O=C(NN1C(=O)C(Cl)C1c1ccc(O)cc1)c1ccccc1O (stereo not given)	> 21.9	10.2	
CC(C)OP(=O)(OC(C)C)C(C(C)C)N(C)C(N)=NC#N (stereo not given)	> 200	> 200	
CC(=O)C1C(=O)OC2C3C=CC(C3)C2C1=O (stereo not given)	> 309	> 309	
CN(C)CCC(/C=C/c1ccccc1)=N\Nc1ccccc1			inactive
COC1=C(N=[N+]=[N-])C(=O)c2ncccc2C1=O			inactive
Nc1nc2c(c(=O)[nH]1)C(c1ccccc1)CC(=O)N2 (stereo not given)	> 200	> 200	
Cc1cc(=O)n(-c2ccccc2)c(=O)o1			inactive
CC(C)Sc1nncc(/C(N)=N/O)n1	> 200	> 200	
Nc1ccc(Nc2cc(=O)[nH]c(=O)[nH]2)cc1	> 200	> 200	
COc1ccc(/C=C/C(=O)OCCc2ccccc2)cc1OC	> 25.1	> 25.1	
n1onc2c1NC1Nc3nonc3NC1N2 (stereo not given)	> 200	> 200	
CCOC(=O)c1ccc(CS(=O)(=O)c2ccccc2)c([N+](=O)[O-])c1	> 102	> 102	
COc1cc2c3c(c1)/C(=N\N)CCN3CCC2	> 200	115	
CCOc1ccc(/C=C/C(=O)c2sc(NNC(C)=O)nc2C)cc1	> 20.9	> 20.9	
COc1cc2c(c(OC)c1O)-c1ccc(OC)c(=O)cc1[C@@H](NC(=O)C(F)(F)F)CC2	> 2	0.0363	
O=C(NCc1cccc(C(F)(F)F)c1)c1cc2sccc2nc1C(F)(F)F	> 200	> 200	
Cc1ccc(C2(O)CC(c3ccc([N+](=O)[O-])o3)=NN2C(=O)COc2ccc(Cl)cc2)cc1 (stereo not given)	> 11.5	> 11.5	
O=c1[nH]nc(NCCc2ccccc2)c2nnn(Cc3ccccc3)c12	> 200	> 200	
COc1ccc(-c2cc(Cc3cccs3)c(=O)[nH]n2)cc1			inactive

SMILES	EC50 [µM]	IC50 [µM]	outcome
N#CCCC(CCC#N)(CCC#N)[N+](=O)[O-]	> 200	> 200	
CC(=O)Oc1cc(C)c(Cl)c2c(OC(C)=O)cc(C(C)=O)c(O)c12	> 200	49	
Cc1cc2c(c(C(=O)NCCC(=O)N[C@@H](C)C(=O)OCc3ccccc3)c1)Oc1c(cc(C)cc1C(=O)NCCC(=O)N[C@@H](C)C(=O)OCc1ccccc1)S2	> 200	> 200	
CN(/N=C/c1ccnc2ccccc12)c1ccc(Cl)cc1[N+](=O)[O-]	> 100	12.3	
CC(C#N)(CCC(=O)O)N=NC(C)(C#N)CCC(=O)O (stereo not given)	> 891	> 891	
CCNC(=O)c1c(O)c2ccccc2[nH]c1=O	> 200	> 200	
Cc1ccc(-c2c3nc(c(-c4ccc(C)cc4)c4ccc([nH]4)c(-c4ccc(C)cc4)c4nc(c(-c5ccncc5)c5ccc2[nH]5)C=C4)C=C3)cc1.Cc1ccc(-c2c3nc(c(-c4ccc(C)cc4)c4ccc([nH]4)c(-c4ccc(C)cc4)c4nc(c(-c5ccncc5)c5ccc2[nH]5)C=C4)C=C3)cc1.Cc1ccc(-c2c3nc(c(-c4ccc(C)cc4)c4ccc([nH]4)c(-c4ccc(C)cc4)c4nc(c(-c5ccncc5)c5ccc2[nH]5)C=C4)C=C3)cc1.Cc1ccc(-c2c3nc(c(-c4ccc(C)cc4)c4ccc([nH]4)c(-c4ccc(C)cc4)c4nc(c(-c5ccncc5)c5ccc2[nH]5)C=C4)C=C3)cc1.O=S(=O)([O-])C(F)(F)F.[Pd]	> 25.1	> 25.1	
Cc1cc(Cl)nc2nc(Cl)c(N)cc12			inactive
Cc1nc2ccc(Cl)cc2c(-n2ccnc2)c1CCn1ccnc1	> 200	89.1	
COc1cc(C(=O)OC2CC(C)=CC[C@@]3(C)CC[C@](O)(C(C)C)C23)ccc1O (stereo not given in full)	> 200	8.51	
CCCCOc1cccc(/C=N/N=C(/N)NO)c1			inactive
O=C(Nc1ccc(C2=NCCN2)cc1)c1cccc(C(=O)Nc2ccc(C3=NCCN3)cc2)c1Cl	49	155	
O=C1c2ccccc2C2NCCCN12 (stereo not given)			inactive
CCCCCCCCCCCCNC1(C)CNCCCNCCNCCCNC1	> 251	1.41	
Nc1nccc2c1ncn2C1C=C(CO)C(O)C1O (stereo not given)	> 832	0.324	
O=C1CN(c2cccc(C(F)(F)F)c2)C(=O)CN1NCNN1CC(=O)N(c2cccc(C(F)(F)F)c2)CC1=O	> 200	> 200	
O=C(O)c1cc2c(ncc3c(=O)n(-c4ccccc4)[nH]c32)s1	> 115	> 115	
c1ccc(-c2ccccc2SSc2ccccc2-c2ccccc2)cc1	> 200	5.37	
CC(C)C1=CC23CCC4C(C)(C(=O)O)CCCC4(C)C2CC1C1C(=O)N(c2ccccc2N2C(=O)C4C5CC6C7(C)CCCC(C)(C(=O)O)C7CCC6(C=C5C(C)C)C4C2=O)C(=O)C13 (stereo not given)	> 141	8.13	
c1ccc(CNC2C(c3ccccc3)=NN(c3ccccc3)C2c2ccccc2)cc1 (stereo not given)	> 200	> 200	
